This passage reports Activity results from ChEMBL document CHEMBL5241115, “Postmodification of voxelotor (GBT 440) via [Rh]-catalyzed cross dehydrogenative coupling with olefins” (2022).

The nature of the experiment: Induction of oxygen binding efficiency of haemoglobin from human sickled red blood cells at 100 uM measured every 10 mins for 180 mins by spectral scan analysis relative to control. It counts as functional, Erythrocyte. As to conditions: 3 h.

Regarding `Cc1ccc(/C=C/c2cnn(C(C)C)c2-c2ncccc2COc2cccc(O)c2C=O)cc1`, the Activity was 78.9%.
`COc1ccc(/C=C/c2cnn(C(C)C)c2-c2ncccc2COc2cccc(O)c2C=O)cc1` yielded an Activity of 78.6%.
Under `COc1ccc(/C=C/c2cnn(C(C)C)c2-c2ncccc2COc2cccc(O)c2C=O)c(OC)c1` stands 81.1%; under `CCCCC(=O)/C=C/c1cnn(C(C)C)c1-c1ncccc1COc1cccc(O)c1C=O`, 82%; under `CC(C)n1nccc1-c1ncccc1COc1cccc(O)c1C=O` [VOXELOTOR], 100%.
